In paper PMC8279416, “Structural Fine-Tuning of Desmuramylpeptide NOD2 Agonists Defines Their In Vivo Adjuvant Activity” (Journal of Medicinal Chemistry, 2021):
“And” between values parts separate entries of the source, which are not always exact repeats. Equal values may be shown once.

Assays:
NIH/OlaHsd mice [1] = assay: In vivo ovalbumin-specific antibody response, second experiment (neutral, anionic, mannosylated liposomes); design: species or system mouse; conditions: for Ovalbumin-specific IgG response (in words): 0.15 μmol adjuvant per dose; for Log10 (anti-OVA IgG1/anti-OVA IgG2a): second in vivo experiment, 0.15 μmol adjuvant, one week after second booster, mean ± SEM of 5 mice
Procedure: To determine whether the adjuvanticity of 75 can be modulated through changes to the liposomal formulation, a second in vivo experiment was designed in which the adjuvant activities of three different liposomal compositions were compared. Neutral liposomes were prepared from egg phosphatidylcholine and cholesterol.
(§1) Multilamellar liposomes were prepared by the modified thin lipid film method as described previously.[130],[131] For the preparation of neutral liposomes, a 7:5 molar ratio of egg-phosphatidylcholine and cholesterol was used. For the preparation of negatively charged liposomes, a 7:5:1 molar ratio of egg-phosphatidylcholine, cholesterol, and dicetylphosphate was used, while a 7:5:0.5 molar ratio of egg-phosphatidylcholine, cholesterol, and Man-PEG-Pam was used in the preparation of mannosylated liposomes. Lipids (total lipid concentration, 4 mg/mL) were dissolved in chloroform/methanol (2:1). A methanol or chloroform/methanol solution of MDP or the desmuramylpeptides was added to the lipid solution for a final concentration of 2 mM and 1.5 mM for the first (Figure 10) and second (Figure 11) experiments, respectively. After rotary evaporation of the solvent, the remaining lipid film was dried in vacuum for 1 h and then dispersed by gentle handshaking in an ovalbumin solution in saline (0.0667 and 0.1 mg/mL for the first and second experiments, respectively). This was then left overnight at 4 °C to swell and stabilize. Liposome size was reduced by sonification. Nonentrapped material was not separated from liposomes, and the complete liposome suspension was used for immunizations.
(§2) For the first experiment (Figure 10), sex-matched NIH/OlaHsd mice (five per group) were immunized subcutaneously in the tail base and boosted one time after 21 days. The injection volume in all experimental groups was 0.15 mL per mouse, which corresponds to 10 μg of OVA, […], and 0.30 μmol of MDP and desmuramylpeptides. For the second experiment (Figure 11), sex-matched NIH/OlaHsd mice (five per group) were immunized and boosted two times subcutaneously into the tail base at 21-day intervals. The injection volume in all experimental groups was 0.1 mL per mouse, which corresponds to 10 μg of OVA, 400 μg of lipids, and 0.15 μmol of MDP and 75. The mice were anesthetized with ip application of ketamine/xylazine (25 mg/kg each) prior to blood collection from the axillary plexus on the seventh day after the last booster dose. Individual serum from each animal was decomplemented at 56 °C for 30 min and then stored at −20 °C until tested.
(§3) ELISA assays were performed as detailed previously.[46] Briefly, high-binding ELISA plates (Costar, U.S.A.) were coated with a 15 μg/mL solution of ovalbumin in carbonate buffer, pH 9.6, and incubated overnight at room temperature. Nonspecific antibody binding was blocked with 0.5% w/v bovine serum albumin in PBS-T (0.05% (v/v) Tween 20 in phosphate-buffered saline) for 2 h at 37 °C. After washing, five serial dilutions of mice sera and standard preparations were added in duplicate. Plates were incubated overnight at room temperature, washed, and analyzed for ovalbumin-specific IgG levels by incubation with HRP-conjugated goat anti-mouse IgG (2 h at 37 °C) and then, after washing, with 0.6 mg/mL o-phenylenediaminedihydrochloride solution in citrate-phosphate buffer, pH 5.0, with 0.5 μL of 30% H2O2 per milliliter for 30 min at room temperature in the dark. The enzymatic reaction was stopped with 12.5% H2SO4, and absorbance at 492 nm was measured using a microplate reader (Thermo Fisher Scientific, Waltham, MA, U.S.A.). For the determination of ovalbumin-specific IgG1 and IgG2a, the plates were incubated with biotin-conjugated rat anti-mouse IgG1 or IgG2a (2 h at 37 °C) and subsequently with streptavidin–peroxidase for another 2 h at 37 °C. After washing, the substrate solution was added and incubated for 30 min at room temperature in the dark, as described above. […]

NOD2 = biological target: T1, NOD2 (Homo sapiens, UniProt Q9HC29); assay: HEK-Blue NOD2 cell line reporter assay (NF-κB-inducible SEAP); assay type: cell-based; conditions: for NOD2 activity at 2 μM (fold increase) / EC50 / NOD2 activation (in words): HEK-Blue NOD2 cells; for NOD2 activity at 2 μM (fold increase): NF-κB transcriptional (SEAP) activity relative to 0.1% DMSO; for NOD2 activation (in words): compound alone
T1 construct: host or cells: HEK-Blue NOD2 cells (HEK293-derived)
Procedure: To determine the NOD2 agonistic potential of the synthesized desmuramylpeptides at the cellular level, we used the validated and commercially available HEK-Blue NOD2 cell line reporter assay. HEK-Blue NOD2 cells were first treated for 18 h with MDP, 1, or the novel desmuramylpeptides at 2 μM. The NF-κB transcriptional activity measured was normalized to that of the vehicle treated (0.1% DMSO) control HEK-Blue NOD2 cells.
HEK-Blue NOD2 and NOD1 cell line reporter assays are derived from HEK293 cells by cotransfection of the hNOD2 or hNOD1 genes, respectively, and an NF-κB-inducible secreted embryonic alkaline phosphatase (SEAP) reporter gene. Following activation of NOD2 or NOD1, the resulting NF-κB induces production of SEAP, the levels of which can be quantified colorimetrically. […] After 18 h of incubation (37 °C, 5% CO2), secreted embryonic alkaline phosphatase (SEAP) activity was determined spectrophotometrically as absorbance at 630 nm (BioTek Synergy microplate reader; Winooski, VT, U.S.A.). EC50 values were calculated using Prism software (version 9; GraphPad Software, CA, U.S.A.). For determination of specificity, HEK-Blue NOD2 cells (2.5 × 10^5 cells/mL) were first pretreated for 1 h with a 10 μM NOD2 antagonist, before the addition of the compounds (2 μM), with incubation for 18 h. SEAP activity in the supernatants was determined as above. The experiments were run in duplicate and repeated as at least two independent biological replicates.

NIH/OlaHsd mice [2] = assay: In vivo ovalbumin-specific antibody response, first experiment (neutral liposomes); design: species or system mouse
Procedure: To determine whether enhanced antigen presentation in vitro is correlated to in vivo adjuvant activities, an immunization study was performed in a murine model of adjuvanticity. Specifically, the selected desmuramylpeptides were investigated for induction of systemic immune responses against the model antigen ovalbumin. Seven groups of NIH/OlaHsd mice were immunized with ovalbumin-containing neutral liposomes, either alone or with additional adjuvants of MDP or the desmuramylpeptides 1, 68, 74, 75, or 81. After immunization and one booster dose, the mice sera were collected and assayed for ovalbumin-specific IgG antibodies (Figure 10).
as §1, §2
as §3, with “U.S.A.).” for “U.S.A.). For the determination of ovalbumin-specific IgG1 and IgG2a, the plates were incubated with biotin-conjugated rat anti-mouse IgG1 or IgG2a (2 h at 37 °C) and subsequently with streptavidin–peroxidase for another 2 h at 37 °C. After washing, the substrate solution was added and incubated for 30 min at room temperature in the dark, as described above.”

[3] = 18 h, 7 or 8 concentrations 1 nM to 20 μM, mean ± SEM
[4] = neutral liposomes, 0.30 μmol adjuvant per dose, 1 week after booster

T1 sequence (Q9HC29 whole entry): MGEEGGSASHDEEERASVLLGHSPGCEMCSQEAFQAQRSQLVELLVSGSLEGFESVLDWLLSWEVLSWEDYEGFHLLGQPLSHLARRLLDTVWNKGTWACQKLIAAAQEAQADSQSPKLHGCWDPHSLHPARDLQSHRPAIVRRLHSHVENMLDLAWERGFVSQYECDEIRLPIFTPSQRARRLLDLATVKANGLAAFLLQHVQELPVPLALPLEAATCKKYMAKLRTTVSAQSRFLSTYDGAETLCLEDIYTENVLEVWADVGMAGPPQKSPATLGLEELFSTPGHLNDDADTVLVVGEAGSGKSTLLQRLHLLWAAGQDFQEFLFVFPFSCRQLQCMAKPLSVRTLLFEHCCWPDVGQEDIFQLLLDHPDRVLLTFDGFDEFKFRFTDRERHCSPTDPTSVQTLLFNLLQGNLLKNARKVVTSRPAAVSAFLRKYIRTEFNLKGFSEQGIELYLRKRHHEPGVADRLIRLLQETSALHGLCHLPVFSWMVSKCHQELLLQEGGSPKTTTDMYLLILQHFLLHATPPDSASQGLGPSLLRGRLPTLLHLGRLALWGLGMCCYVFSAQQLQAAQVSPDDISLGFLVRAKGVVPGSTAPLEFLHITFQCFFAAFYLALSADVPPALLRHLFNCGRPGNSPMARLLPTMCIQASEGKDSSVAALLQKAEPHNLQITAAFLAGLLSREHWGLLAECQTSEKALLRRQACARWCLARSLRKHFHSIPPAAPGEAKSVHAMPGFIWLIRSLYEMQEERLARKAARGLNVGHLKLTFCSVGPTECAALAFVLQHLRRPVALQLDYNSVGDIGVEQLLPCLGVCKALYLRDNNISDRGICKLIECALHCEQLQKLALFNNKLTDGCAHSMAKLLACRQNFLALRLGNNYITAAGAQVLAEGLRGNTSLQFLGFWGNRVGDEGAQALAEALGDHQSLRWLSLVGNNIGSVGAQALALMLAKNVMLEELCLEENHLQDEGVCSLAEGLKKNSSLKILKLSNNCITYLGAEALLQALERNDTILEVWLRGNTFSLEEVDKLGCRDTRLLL

## CC(=O)N[C@H]1C(O)O[C@H](CO)[C@@H](O)[C@@H]1O[C@H](C)C(=O)N[C@@H](C)C(=O)N[C@H](CCC(=O)O)C(N)=O (stereo partly drawn) [MDP, muramyl dipeptide, reference compound]
NIH/OlaHsd mice [1]; all liposomal compositions, compared to liposomes without adjuvant
  Ovalbumin-specific IgG2a response (in words): remained unchanged
NIH/OlaHsd mice [1]; mannosylated liposomes
  Ovalbumin-specific IgG response (in words): strongest immunogenicity
  Log10 (anti-OVA IgG1/anti-OVA IgG2a): 2.48 ± 0.19
NIH/OlaHsd mice [1]; negatively charged liposomes
  Ovalbumin-specific IgG response (in words): stronger IgG response
NIH/OlaHsd mice [1]; neutral liposomes
  Ovalbumin-specific IgG response (in words): weakest adjuvant activities
  Log10 (anti-OVA IgG1/anti-OVA IgG2a): 3.02 ± 0.17
NIH/OlaHsd mice [1]; anionic liposomes
  Log10 (anti-OVA IgG1/anti-OVA IgG2a): 2.85 ± 0.10
NOD2; 18 h, mean ± SEM
  NOD2 activity at 2 μM (fold increase): 2.83 fold increase and 2.83 ± 0.16 fold increase
NOD2; [3]
  EC50: 148 ± 26 nM
NIH/OlaHsd mice [2]; first in vivo experiment, one week after the booster dose, mean ± SEM of 5 mice
  Log10 (anti-OVA IgG1/anti-OVA IgG2a): 2.43 ± 0.25
NIH/OlaHsd mice [2]; [4]
  Ovalbumin-specific IgG1 response (in words): significant increases in IgG1 generation
  Ovalbumin-specific IgG2a response (in words): only marginal increases in IgG2a
NIH/OlaHsd mice [2]; neutral liposomes, 0.30 μmol adjuvant per dose, s.c., 1 week after booster
  Adjuvant activity: ovalbumin-specific IgG (in words): moderately enhanced

## COc1cc(/C=C/C(=O)NCC(=O)N[C@H](C(=O)N[C@H](CCC(=O)OC(C)(C)C)C(=O)OC(C)(C)C)C(C)C)ccc1O [Compound 56, Di-tert-butyl ((E)-3-(4-Hydroxy-3-methoxyphenyl)acryloyl)glycyl-L-valyl-D-glutamate]
NOD2; 18 h, mean ± SEM
  NOD2 activity at 2 μM (fold increase): 1.20 ± 0.10 fold increase
NOD2
  NOD2 activation (in words): markedly reduced NOD2 activation

## CCCCCCCCCCCCCCCCCC(=O)Oc1ccc(/C=C/C(=O)NCC(=O)N[C@@H](CO)C(=O)N[C@H](CCC(=O)OCC)C(=O)OCC)cc1OC [Compound 80, Diethyl ((E)-3-(3-Methoxy-4-(stearoyloxy)phenyl)acryloyl)glycyl-L-seryl-D-glutamate]
NOD2; 18 h, mean ± SEM
  NOD2 activity at 2 μM (fold increase): 1.21 fold increase and 1.21 ± 0.06 fold increase

## CCOC(=O)CC[C@@H](NC(=O)[C@@H](NC(=O)CNC(=O)[C@@H]1C[C@H]1c1ccc(F)c(F)c1)C(C)C)C(=O)OCC [Compound 29b]
NOD2; 18 h, mean ± SEM
  NOD2 activity at 2 μM (fold increase): 2.71 ± 0.05 fold increase
NOD2; [3]
  EC50: 39 ± 1 nM

## CCOC(=O)CC[C@@H](NC(=O)[C@@H](NC(=O)CNC(=O)C1CC1c1ccc(OC)c(OC)c1)C(C)C)C(=O)OCC (stereo partly drawn) [Compound 27, Diethyl (2-(3,4-Dimethoxyphenyl)cyclopropane-1-carbonyl)glycyl-L-valyl-D-glutamate]
NOD2; 18 h, mean ± SEM
  NOD2 activity at 2 μM (fold increase): 2.63 ± 0.15 fold increase
NOD2; [3]
  EC50: 322 ± 7 nM
NOD2; ratio of EC50 versus compound 20
  Improved potency over 20: 2.4 fold

## CCCCCCCCCCCCCCCCCCOC(=O)CC[C@@H](NC(=O)[C@@H](NC(=O)CNC(=O)/C=C/c1ccc(O)c(OC)c1)C(C)C)C(=O)OCCCCCCCCCCCCCCCCCC [Compound 72, Dioctadecyl ((E)-3-(4-Hydroxy-3-methoxyphenyl)acryloyl)glycyl-L-valyl-D-glutamate]
NOD2; 18 h, mean ± SEM
  NOD2 activity at 2 μM (fold increase): 1.32 ± 0.02 fold increase
NOD2
  NOD2 activation (in words): almost completely abrogated the NOD2 agonistic activity

## CCOC(=O)CC[C@@H](NC(=O)[C@@H](NC(=O)CNC(=O)C1CC1c1ccc(O)c(OC)c1)C(C)C)C(=O)OCC (stereo partly drawn) [Compound 28, Diethyl (2-(4-Hydroxy-3-methoxyphenyl)cyclopropane-1-carbonyl)glycyl-L-valyl-D-glutamate]
NOD2; 18 h, mean ± SEM
  NOD2 activity at 2 μM (fold increase): 2.66 ± 0.07 fold increase
NOD2; [3]
  EC50: 369 ± 4 nM
NOD2; ratio of EC50 versus compound 1
  Decrease of NOD2 agonistic activity/potency by a factor, relative to 1: 4

## CONC(=O)CC[C@@H](NC(=O)[C@@H](NC(=O)CNC(=O)/C=C/c1ccc(O)c(OC)c1)C(C)C)C(=O)OC(C)(C)C [Compound 60, tert-Butyl N^2-((E)-3-(4-Hydroxy-3-methoxyphenyl)acryloyl)glycyl-L-valyl-N^5-methoxy-D-glutaminate]
NOD2; 18 h, mean ± SEM
  NOD2 activity at 2 μM (fold increase): 1.32 ± 0.02 fold increase

## CCOC(=O)CC[C@@H](NC(=O)[C@H](COCc1ccccc1)NC(=O)CNC(=O)/C=C/c1ccc(O)c(OC)c1)C(=O)OCC [Compound 30, Diethyl O-Benzyl-N-(((E)-3-(4-hydroxy-3-methoxyphenyl)acryloyl)glycyl)-L-seryl-D-glutamate]
NOD2
  EC50: 5560 nM
NOD2; 18 h, mean ± SEM
  NOD2 activity at 2 μM (fold increase): 2.04 fold increase and 2.04 ± 0.02 fold increase
NOD2; [3]
  EC50: 5560 ± 1470 nM
